Test results as given in US8076327B2, “Condensed imidazole derivatives as aldosterone synthase inhibitors” (Novartis AG, priority 2006, dated 2011).

What was measured:
[1] = test system: plasma aldosterone levels; experiment: Suppression of plasma aldosterone in ACTH-stimulated rats; assay type: in vivo, Wistar rats; settings: 4 mg/kg p.o.; plasma level 2 h after dosing relative to 1 h prior to dosing; rat
Experimental: (§1) The aldosterone- and corticosterone-suppressing activity of herein described compounds may be assessed with the following in vivo protocol.
(§2) Adult male Wistar rats weighing between 250 and 350 grams are kept under the usual 12-hour light and 12-hour dark conditions at a temperature of 23° C.±2° C. On the first day of the experiment, the animals receive a subcutaneous injection of a depot ACTH product in a dose of 1.0 mg/kg weight (SYNACTHEN-Depot, Novartis, Basel, CH) 16 hours prior to the administration of a test compound. […] An alternative method to stimulate aldosterone secretion consists in subjecting rats to a low salt diet for 48 hours and applying the diuretic furosemide at 10 mg/kg by subcutaneous or intraperitoneal administration 16 hours, respectively 2 hours prior to the start of the experiment. On the second day of the experiment, the animals are divided into test groups of 5 animals and subjected to a first bleed 1 hour prior to the administration of test compound. Subsequently, and 16 hours after the injection of the ACTH product, the animals receive either vehicle or test compound dissolved in vehicle in a variable dose range from 0.02 to 20 mg/kg by oral gavage. The animals are bled two more times from the vena subclavia under isoflurane anaesthesia 2 and 6 hours after dosing. The blood is collected in heparin-treated tubes. The plasma samples are obtained by centrifugation and stored at −20° C. An alternative method to bleed animals time-dependently consists in using animals that are chronically carotid catheterized which allows the periodical sampling of up to 0.2 ml of blood using an AccuSampler (DiLab Europe, Lund, Sweden). The blood sampling with the AccuSampler may occur 1 hour prior to the administration of a test compound and 2, 4, 6, 8, 12, 16 and 24 hours thereafter. The blood samples are anticoagulated with heparin and centrifuged. The aldosterone and corticosterone concentrations of the plasma samples can be determined with a radioimmunoassay as described above for the in vitro test systems.
(§3) The selective suppression of plasma steroid levels as for instance aldosterone in comparison to corticosterone may serve as a measure for in vivo bioavailability and pharmacodynamic enzyme inhibitory activity of the herein described compounds. The evaluation of the data may occur relative to the application of vehicle or quantitatively by determination of the area under the curve (AUC).

[2] = test system: plasma corticosterone levels; experiment: Suppression of plasma corticosterone in ACTH-stimulated rats; assay type: in vivo, Wistar rats; settings: 4 mg/kg p.o.; plasma level 2 h after dosing relative to 1 h prior to dosing; rat
Experimental: as §1, §2, §3

[3] = molecular target: T1, recombinant human Cyp19 enzyme (Homo sapiens, UniProt P11511); experiment: Cyp19/MFC high throughput enzyme inhibition kit (aromatase); assay type: biochemical
T1 construct: purchased Becton Dickinson Biosciences, San Jose, Calif., USA
T1 sequence (P11511 1-503): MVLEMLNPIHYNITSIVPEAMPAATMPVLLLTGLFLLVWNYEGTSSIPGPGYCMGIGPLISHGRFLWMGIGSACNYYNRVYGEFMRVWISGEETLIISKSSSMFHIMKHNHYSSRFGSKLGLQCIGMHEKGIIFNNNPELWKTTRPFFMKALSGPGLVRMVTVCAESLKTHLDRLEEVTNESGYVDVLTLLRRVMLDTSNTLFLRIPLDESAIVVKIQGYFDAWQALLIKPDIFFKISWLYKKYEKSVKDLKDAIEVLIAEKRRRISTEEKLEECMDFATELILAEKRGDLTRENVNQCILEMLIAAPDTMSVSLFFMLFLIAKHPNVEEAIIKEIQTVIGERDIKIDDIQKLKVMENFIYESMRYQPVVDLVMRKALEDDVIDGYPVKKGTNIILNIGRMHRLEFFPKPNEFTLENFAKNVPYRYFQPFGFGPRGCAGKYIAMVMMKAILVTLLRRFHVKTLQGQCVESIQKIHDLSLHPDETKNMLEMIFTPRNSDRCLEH
Experimental: The compounds of the formula (Ia) have at least one asymmetric carbon atom, which is labelled “*”. A compound of the formula (Ia) is to be understood as a compound having a specific configuration around the designated asymmetric carbon atom. If a synthesis method is used which leads to racemic compounds, the racemate resolution is carried out in accordance with conventional methods, such as via a chiral HPLC column. […] The aforementioned aromatase inhibitory activity can, as the skilled worker is well aware and as described below, be comfortably determined using the commercial Cyp19 enzyme inhibition kit, preferably the Cyp19/methoxy-4-trifluoromethyl-coumarin (MFC) high throughput inhibition kit (Becton Dickinson Biosciences, San Jose, Calif., USA) as described hereafter. In the abovementioned inhibition kit, compounds of the formula (Ia) have an activity which is at least 10 times lower preferably 20 times lower, but more preferably 40 times lower than the compounds of the formula (Ia) with the opposite configuration around the asymmetric carbon atom labelled “*”. A lower inhibiting activity corresponds to a higher IC50 value.
The Cyp19/methoxy-4-trifluoromethyl-coumarin (MFC) high throughput inhibition kit (Becton Dickinson Biosciences, San Jose, Calif., USA), for example, is designed to screen for potential inhibitors of Cyp19 catalytic activity in a 96-well format. […]

N#Cc1ccc(C2SCCn3cncc32)cc1 (stereo not drawn) [Example 2, 4-(5,6-Dihydro-8H-imidazo[5,1-c][1,4]thiazin-8-yl)benzonitrile]
Aldosterone levels (% change at 2 h) [1]: −56%
Corticosterone levels (% change at 2 h) [2]: −22%

N#Cc1cccc(C2OCCn3cncc32)c1 (stereo not drawn) [Example 19, 3-(5,6-Dihydro-8H-imidazo[5,1-c][1,4]oxazin-8-yl)benzonitrile]
Aldosterone levels (% change at 2 h) [1]: −65%
Corticosterone levels (% change at 2 h) [2]: 1.7%

N#Cc1ccc(C2OCCn3cncc32)cc1 (racemic) [antipode of 24, 4-(5,6-Dihydro-8H-imidazo[5,1-c][1,4]oxazin-8-yl)benzonitrile]
IC50 [3]: 7.1 nM

CC(=O)c1ccc(C2OCCn3cncc32)cc1 (stereo not drawn) [Example 18, 1-[4-(5,6-Dihydro-8H-imidazo[5,1-c][1,4]oxazin-8-yl)phenyl]ethanone]
Aldosterone levels (% change at 2 h) [1]: −33%
Corticosterone levels (% change at 2 h) [2]: 4%

CC1(c2ccc(C#N)cc2)SCCn2cncc21 (stereo not drawn) [Example 4, 4-(8-Methyl-5,6-dihydro-8H-imidazo[5,1-c][1,4]thiazin-8-yl)-benzonitrile]
Aldosterone levels (% change at 2 h) [1]: −19%
Corticosterone levels (% change at 2 h) [2]: −10%
